Reference: US20210382058A1, “PATIENT SELECTION FOR TREATMENT OF MYC POSITIVE CANCERS WITH INDENOISOQUINOLINES” (Purdue Research Foundation, priority 2020, published 2021)
Like-named read-outs stand apart in the source and are kept apart here.

Assays:
[1] = tested on: MYC protein expression in MCF-7 breast cancer cells; test: Western blotting of MYC protein level in MCF-7 cells; format: cell-based, human
Outline: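 Immunoblotting with ECL detection quantified MYC, with GAPDH (1:2000) as reference and anti-MYC at 1:1000.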

NCI-60 cancer cell lines = test: NCI-60 cancer cell line drug screen (GI50, MGM); format: cell-based, human; settings: for GI50: read-out: Antiproliferative Activities [GI50 (μM)]
Description: Cancer cells were incubated with the test compounds at five concentrations ranging from 100 μM to 10 nM for 48 h. […] The approximate average of GI50 values across the entire panel of NCI-60 cancer cell lines for each compound was recorded as the MGM value.

human topoisomerase I = molecular target: T1, human topoisomerase I (Homo sapiens, UniProt P11387); settings: relative topoisomerase I inhibition levels, previously determined, six levels (0 - 5, +++++ = 5); cited from earlier work
T1 sequence (P11387 1-765): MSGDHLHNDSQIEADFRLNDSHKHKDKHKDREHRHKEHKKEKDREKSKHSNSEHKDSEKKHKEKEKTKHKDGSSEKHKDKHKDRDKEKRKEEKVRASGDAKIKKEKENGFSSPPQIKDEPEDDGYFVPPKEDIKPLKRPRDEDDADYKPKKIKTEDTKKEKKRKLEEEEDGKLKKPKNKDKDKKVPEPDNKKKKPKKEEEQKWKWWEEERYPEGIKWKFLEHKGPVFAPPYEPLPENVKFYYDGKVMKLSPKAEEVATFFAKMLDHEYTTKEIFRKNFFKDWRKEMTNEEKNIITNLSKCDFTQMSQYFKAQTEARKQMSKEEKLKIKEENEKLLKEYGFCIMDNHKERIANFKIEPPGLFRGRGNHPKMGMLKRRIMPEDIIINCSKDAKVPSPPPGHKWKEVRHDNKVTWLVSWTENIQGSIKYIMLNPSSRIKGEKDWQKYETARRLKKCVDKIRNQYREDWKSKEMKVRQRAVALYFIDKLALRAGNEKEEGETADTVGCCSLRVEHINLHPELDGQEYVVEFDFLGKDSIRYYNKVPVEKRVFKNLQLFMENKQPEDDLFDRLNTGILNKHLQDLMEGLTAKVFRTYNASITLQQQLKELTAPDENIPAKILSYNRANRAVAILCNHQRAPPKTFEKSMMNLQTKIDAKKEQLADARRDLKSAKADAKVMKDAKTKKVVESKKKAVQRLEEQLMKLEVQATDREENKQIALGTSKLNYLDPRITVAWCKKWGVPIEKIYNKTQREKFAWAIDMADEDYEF

COc1cnc2c(c1)C(=O)c1c-2n(CCCNC(C)C)c(=O)c2cc(F)ccc12 [Compound 5]
minimal effective concentration ([1]; Homo sapiens, MCF7, western blotting, MCF-7 cells, 0.5, 1, 2, and 4 μM, 24 hours, read-out: MYC Inhibition): 0.5 to 1 µM
MYC-inhibitory effect (MYC protein, western blot) ([1]; MCF-7, 0.5, 1, 2, and 4 μM, 24 h): clear MYC-inhibitory effect
GI50 (NCI-60 cancer cell lines; Homo sapiens, 786-0, Renal Cancer, 786-0): 0.12 µM
GI50 (NCI-60 cancer cell lines; Homo sapiens, A498, Renal Cancer, A498): 0.2 µM
GI50 (NCI-60 cancer cell lines; Homo sapiens, A549, Non-Small Cell Lung Cancer, A549/ATCC): 0.07 µM
GI50 (NCI-60 cancer cell lines; Homo sapiens, ACHN, Renal Cancer, ACHN): 0.06 µM
GI50 (NCI-60 cancer cell lines; Homo sapiens, BT-549, Breast Cancer, BT-549): 0.66 µM
GI50 (NCI-60 cancer cell lines; Homo sapiens, CCRF-CEM, Leukemia, CCRF-CEM): 0.11 µM
GI50 (NCI-60 cancer cell lines; Homo sapiens, COLO 205, Colon Cancer, COLO 205): 0.09 µM
GI50 (NCI-60 cancer cell lines; Homo sapiens, DU-145, Prostate Cancer, DU-145): 0.21 µM
GI50 (NCI-60 cancer cell lines; Homo sapiens, EKVX, Non-Small Cell Lung Cancer, EKVX): 0.3 µM
GI50 (NCI-60 cancer cell lines; Homo sapiens, HCC 2998, Colon Cancer, HCC-2998): 0.4 µM
GI50 (NCI-60 cancer cell lines; Homo sapiens, HCT-15, Colon Cancer, HCT-15): 0.16 µM
GI50 (NCI-60 cancer cell lines; Homo sapiens, HCT-116, Colon Cancer, HCT-116): 0.09 µM
GI50 (NCI-60 cancer cell lines; Homo sapiens, HL-60, Leukemia, HL-60(TB)): 0.16 µM
GI50 (NCI-60 cancer cell lines; Homo sapiens, HOP-62, Non-Small Cell Lung Cancer, HOP-62): 0.11 µM
GI50 (NCI-60 cancer cell lines; Homo sapiens, HOP-92, Non-Small Cell Lung Cancer, HOP-92): 0.28 µM
GI50 (NCI-60 cancer cell lines; Homo sapiens, HT-29, Colon Cancer, HT29): 0.07 µM
GI50 (NCI-60 cancer cell lines; Homo sapiens, Hs-578T, Breast Cancer, HS 578T): 0.75 µM
GI50 (NCI-60 cancer cell lines; Homo sapiens, IGROV-1, Ovarian Cancer, IGROV1): 0.21 µM
GI50 (NCI-60 cancer cell lines; Homo sapiens, K562, Leukemia, K-562): 0.13 µM
GI50 (NCI-60 cancer cell lines; Homo sapiens, KM12, Colon Cancer, KM12): 0.17 µM
GI50 (NCI-60 cancer cell lines; Homo sapiens, LOX IMVI, Melanoma, LOX IMVI): 0.11 µM
GI50 (NCI-60 cancer cell lines; Homo sapiens, Leukemia, SR): 0.08 µM
GI50 (NCI-60 cancer cell lines; Homo sapiens, MCF7, Breast Cancer, MCF7): 0.03 µM
GI50 (NCI-60 cancer cell lines; Homo sapiens, MDA-MB-231, Breast Cancer, MDA-MB-231/ATCC): 0.4 µM
GI50 (NCI-60 cancer cell lines; Homo sapiens, MDA-MB-435, Melanoma, MDA-MB-435): 0.31 µM
GI50 (NCI-60 cancer cell lines; Homo sapiens, MDA-MB-468, Breast Cancer, MDA-MB-468): 0.23 µM
GI50 (NCI-60 cancer cell lines; Homo sapiens, MOLT-4, Leukemia, MOLT-4): 0.04 µM
GI50 (NCI-60 cancer cell lines; Homo sapiens, Malme-3M, Melanoma, MALME-3M): 0.2 µM
GI50 (NCI-60 cancer cell lines; Homo sapiens, Melanoma, M14): 0.23 µM
GI50 (NCI-60 cancer cell lines; Homo sapiens, NCI-H23, Non-Small Cell Lung Cancer, NCI-H23): 0.18 µM
GI50 (NCI-60 cancer cell lines; Homo sapiens, NCI-H226, Non-Small Cell Lung Cancer, NCI-H226): 0.15 µM
GI50 (NCI-60 cancer cell lines; Homo sapiens, NCI-H322M, Non-Small Cell Lung Cancer, NCI-H322M): 0.32 µM
GI50 (NCI-60 cancer cell lines; Homo sapiens, NCI-H460, Non-Small Cell Lung Cancer, NCI-H460): 0.04 µM
GI50 (NCI-60 cancer cell lines; Homo sapiens, NCI-H522, Non-Small Cell Lung Cancer, NCI-H522): 0.04 µM
GI50 (NCI-60 cancer cell lines; Homo sapiens, OVCAR-3, Ovarian Cancer, OVCAR-3): 0.19 µM
GI50 (NCI-60 cancer cell lines; Homo sapiens, OVCAR-4, Ovarian Cancer, OVCAR-4): 0.3 µM
GI50 (NCI-60 cancer cell lines; Homo sapiens, OVCAR-5, Ovarian Cancer, OVCAR-5): 0.28 µM
GI50 (NCI-60 cancer cell lines; Homo sapiens, OVCAR-8, Ovarian Cancer, OVCAR-8): 0.14 µM
GI50 (NCI-60 cancer cell lines; Homo sapiens, Ovarian Cancer, NCl/ADR-RES): 0.23 µM
GI50 (NCI-60 cancer cell lines; Homo sapiens, Prostate Cancer, PC-3): 0.28 µM
GI50 (NCI-60 cancer cell lines; Homo sapiens, RPMI-8226, Leukemia, RPMI-8226): 0.15 µM
GI50 (NCI-60 cancer cell lines; Homo sapiens, RXF 393, Renal Cancer, RXF 393): 0.23 µM
GI50 (NCI-60 cancer cell lines; Homo sapiens, Renal Cancer, U0-31): 0.08 µM
GI50 (NCI-60 cancer cell lines; Homo sapiens, SF-268, CNS Cancer, SF-268): 0.21 µM
GI50 (NCI-60 cancer cell lines; Homo sapiens, SF-295, CNS Cancer, SF-295): 0.09 µM
GI50 (NCI-60 cancer cell lines; Homo sapiens, SF-539, CNS Cancer, SF-539): 0.25 µM
GI50 (NCI-60 cancer cell lines; Homo sapiens, SK-MEL-2, Melanoma, SK-MEL-2): 0.51 µM
GI50 (NCI-60 cancer cell lines; Homo sapiens, SK-MEL-5, Melanoma, SK-MEL-5): 0.16 µM
GI50 (NCI-60 cancer cell lines; Homo sapiens, SK-MEL-28, Melanoma, SK-MEL-28): 0.94 µM
GI50 (NCI-60 cancer cell lines; Homo sapiens, SK-OV-3, Ovarian Cancer, SK-OV-3): 0.22 µM
GI50 (NCI-60 cancer cell lines; Homo sapiens, SN12C, Renal Cancer, SN12C): 0.16 µM
GI50 (NCI-60 cancer cell lines; Homo sapiens, SNB-19, CNS Cancer, SNB-19): 0.18 µM
GI50 (NCI-60 cancer cell lines; Homo sapiens, SNB-75, CNS Cancer, SNB-75): 0.22 µM
GI50 (NCI-60 cancer cell lines; Homo sapiens, SW-620, Colon Cancer, SW-620): 0.12 µM
GI50 (NCI-60 cancer cell lines; Homo sapiens, T47D, Breast Cancer, T-47D): 0.08 µM
GI50 (NCI-60 cancer cell lines; Homo sapiens, TK-10, Renal Cancer, TK-10): 0.18 µM
GI50 (NCI-60 cancer cell lines; Homo sapiens, U-251, CNS Cancer, U251): 0.08 µM
GI50 (NCI-60 cancer cell lines; Homo sapiens, UACC-62, Melanoma, UACC-62): 0.27 µM
GI50 (NCI-60 cancer cell lines; Homo sapiens, UACC-257, Melanoma, UACC-257): 0.47 µM
mean GI50 across NCI-60 panel (MGM) (NCI-60 cancer cell lines; Homo sapiens, average of GI50 values across the entire panel of NCI-60 cancer cell lines): 165 nM
anticancer activity (GI50 profile) in words (NCI-60 cancer cell lines; NCI-60 panel): more potent anticancer activities compared to compounds 4 and 20
Top1 Inhibiton (human topoisomerase I): ++ (medium inhibition, ++, MYC expression inhibited at 2.0 μM, or no clear dose-dependent MYC inhibition)
